Consider 18 compounds from patent US10821100B2, “Triazolone compounds as mPGES-1 inhibitors” (Glenmark Pharmaceuticals S.A., priority 2012, dated 2020).

In the test the target is T1, Recombinant human mPGES-1 (Homo sapiens, UniProt O14684).
T1 construct: made in house; host or cells: CHO cells (crude microsomal fractions)
T1 sequence (O14684 1-152): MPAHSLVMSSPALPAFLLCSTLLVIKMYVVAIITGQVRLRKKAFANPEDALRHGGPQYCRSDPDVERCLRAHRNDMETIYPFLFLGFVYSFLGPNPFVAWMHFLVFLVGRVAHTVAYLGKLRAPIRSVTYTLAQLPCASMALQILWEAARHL
Nature of the test: In-vitro screening of mPGES-1 inhibitors (inhibition of PGE2 formation from PGH2, HTRF detection). It counts as biochemical. Conditions: mPGES-1 enzyme; for inhibition at 1 µM: 1 μM test compound, read-out: Percentage inhibition at 1 μM; for inhibition at 1 µM / inhibition at 10 µM: crude microsomal fractions; for inhibition at 10 µM: 10 μM test compound, read-out: Percentage inhibition at 10 μM; for IC50: class symbols. In outline: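 Crude CHO-expressed microsomes (40–60 μg/mL protein) preincubated 10 min with compound in 0.1 M potassium phosphate/2 mM EDTA containing 2.5 mM GSH, 0.5% DMSO final. PGH2 (15 μM) reacted 1 min, stopped with stannous chloride. PGE2 quantified by HTRF, IC50 from nonlinear regression of percent inhibition.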
In general terms: In TR-FRET formats the signal depends on donor and acceptor labels being close together.

Bounds are passed on as bounds.

In general, inhibition refers to the change of the read-out against control, counted positive when it falls. Broadly, the IC50 is the concentration that inhibits the measured activity by half. Regarding `CC(C)(C)C(=O)NCc1ccc(Cl)c(-n2nc(-c3ccc(C(F)(F)F)cc3)[nH]c2=O)c1` [Example-145, N-(4-Chloro-3-(3-(4-(trifluoromethyl)phenyl)-4,5-dihydro-5-oxo-1,2,4-triazol-1-yl)benzyl)pivalamide], the inhibition at 1 µM was 94.2%, the inhibition at 10 µM is 98.9% and the IC50 is below 50 nM.
On the same counts, the results for `CC(C)(C)C(=O)NCc1ccc(Cl)c(-n2nc(-c3ccc(C(F)(F)F)c(F)c3)[nH]c2=O)c1` [Example-146, N-(4-Chloro-3-(3-(3-fluoro-4-(trifluoromethyl)phenyl)-4,5-dihydro-5-oxo-1,2,4-triazol-1-yl)benzyl)pivalamide] are 100%, 99.7% and below 50 nM.
On the same counts, the results for `CC(C)(C)C(=O)NCc1ccc(Cl)c(-n2nc(-c3ccc(Cl)c(C(F)(F)F)c3)[nH]c2=O)c1` [Example-147, N-(4-Chloro-3-(3-(4-chloro-3-(trifluoromethyl)phenyl)-4,5-dihydro-5-oxo-1,2,4-triazol-1-yl)benzyl)pivalamide] are 98.6%, 97.6% and below 50 nM.
On the same counts, the results for `CC(C)(C)C(=O)NCc1ccc(Cl)c(-n2nc(-c3ccc(F)c(C(F)(F)F)c3)[nH]c2=O)c1` [Example-148, N-(4-Chloro-3-(3-(4-fluoro-3-(trifluoromethyl)phenyl)-4,5-dihydro-5-oxo-1,2,4-triazol-1-yl)benzyl)pivalamide] are 98.9%, 97.8% and below 50 nM.
Regarding `CC(C)C(=O)NCc1ccc(Cl)c(-n2nc(-c3ccc(C#CC(C)(C)C)c(F)c3)[nH]c2=O)c1` [Example-149, N-(4-Chloro-3-(3-(3-fluoro-4-(3,3-dimethylbut-1-ynyl)phenyl)-4,5-dihydro-5-oxo-1,2,4-triazol-1-yl)benzyl)isobutyramide], the inhibition at 1 µM came to 98.3%, the inhibition at 10 µM came out at 94.6% and the IC50 was below 50 nM.
In the case of `CC(C)C(=O)NCc1ccc(Cl)c(-n2nc(-c3ccc(C#CC4CC4)c(F)c3)[nH]c2=O)c1` [Example-150, N-(4-Chloro-3-(3-(4-(2-cyclopropylethynyl)-3-fluorophenyl)-4,5-dihydro-5-oxo-1,2,4-triazol-1-yl)benzyl)isobutyramide], the inhibition at 1 µM came to 98.4%, the inhibition at 10 µM turned out to be 99.5% and the concentration for half-maximal inhibition (IC50) was below 50 nM.
As for `CC(C)(C)C(=O)NCc1ccc(Cl)c(-n2nc(-c3ccc(CN4CCCC4)cc3)[nH]c2=O)c1` [Example-151, N-(4-Chloro-3-(4,5-dihydro-5-oxo-3-(4-((pyrrolidin-1-yl)methyl)phenyl)-1,2,4-triazol-1-yl)benzyl)pivalamide], the inhibition at 1 µM is 65% and the inhibition at 10 µM was determined as 95.9%.
Take `CC(C)(C)C(=O)NCc1ccc(Cl)c(-n2nc(-c3ccc(COCC(F)(F)F)cc3)[nH]c2=O)c1` [Example-152, N-(3-(3-(4-((2,2,2-Trifluoroethoxy)methyl)phenyl)-4,5-dihydro-5-oxo-1,2,4-triazol-1-yl)-4-chlorobenzyl)pivalamide]: the inhibition at 1 µM stood at 96%, the inhibition at 10 µM is 100% and the IC50 is below 50 nM.
With `CC(C)c1nnc(-c2ccc(-c3nn(-c4cc(CNC(=O)C(C)(C)C)ccc4Cl)c(=O)[nH]3)cc2)o1` [Example-153, N-(4-Chloro-3-(4,5-dihydro-3-(4-(5-isopropyl-1,3,4-oxadiazol-2-yl)phenyl)-5-oxo-1,2,4-triazol-1-yl)benzyl)pivalamide], the inhibition at 1 µM turned out to be 93.9%, the inhibition at 10 µM amounted to 99.7% and the IC50 lay in the range of 50 to 100 nM.
The like results for `Cc1cc(-n2nc(-c3cc(CNC(=O)C(C)(C)C)ccc3Cl)[nH]c2=O)ccc1Cl` [Example-154, N-(4-Chloro-3-(1-(4-chloro-3-methylphenyl)-4,5-dihydro-5-oxo-1H-1,2,4-triazol-3-yl)benzyl)pivalamide] were, in that order, 95.2%, 100% and below 50 nM.
The like results for `Cc1cc(-n2nc(-c3cc(CNC(=O)C(C)C)ccc3Cl)[nH]c2=O)ccc1Cl` [Example-155, N-(4-Chloro-3-(1-(4-chloro-3-methylphenyl)-4,5-dihydro-5-oxo-1H-1,2,4-triazol-3-yl)benzyl)isobutyramide] were, in that order, 99.7%, 97.1% and below 50 nM.
On the same counts, the results for `CC(C)(C)C(=O)NCc1ccc(Cl)c(-c2nn(-c3cc(F)cc(C(F)(F)F)c3)c(=O)[nH]2)c1` [Example-156, N-(4-Chloro-3-(1-(3-fluoro-5-(trifluoromethyl)phenyl)-4,5-dihydro-5-oxo-1H-1,2,4-triazol-3-yl)benzyl)pivalamide] are 98.5%, 99.2% and below 50 nM.
Turning to `CC(C)(C)C(=O)NCc1ccc(Cl)c(-c2nn(-c3ccc(Cl)c(C(F)(F)F)c3)c(=O)[nH]2)c1` [Example-157, N-(4-Chloro-3-(1-(4-chloro-3-(trifluoromethyl)phenyl)-4,5-dihydro-5-oxo-1H-1,2,4-triazol-3-yl)benzyl)pivalamide], the inhibition at 1 µM is 98.5%, the inhibition at 10 µM came to 96.5% and the 50% inhibitory concentration (IC50) was below 50 nM.
The like results for `Cc1ccc(-n2nc(-c3cc(CNC(=O)C(C)(C)C)ccc3Cl)[nH]c2=O)cc1C(F)(F)F` [Example-158, N-(4-Chloro-3-(1-(3-(trifluoromethyl)-4-methylphenyl)-4,5-dihydro-5-oxo-1H-1,2,4-triazol-3-yl)benzyl)pivalamide] were, in that order, 99%, 99.7% and below 50 nM.
As for `Cc1cc(C(F)(F)F)ccc1-n1nc(-c2cc(CNC(=O)C(C)(C)C)ccc2Cl)[nH]c1=O` [Example-159, N-(4-Chloro-3-(1-(4-(trifluoromethyl)-2-methylphenyl)-4,5-dihydro-5-oxo-1H-1,2,4-triazol-3-yl)benzyl)pivalamide], the inhibition at 1 µM is 75.4%, the inhibition at 10 µM was found to be 96.8% and the IC50 is above 100 nM.
On the same counts, the results for `CC(C)(C)C(=O)NCc1ccc(Cl)c(-c2nn(-c3ccc(C(F)(F)F)c(F)c3)c(=O)[nH]2)c1` [Example-160, N-(4-Chloro-3-(1-(3-fluoro-4-(trifluoromethyl)phenyl)-4,5-dihydro-5-oxo-1H-1,2,4-triazol-3-yl)benzyl)pivalamide] are 96.6%, 97.3% and below 50 nM.
The like results for `CC(C)C(=O)NCc1ccc(Cl)c(-c2nn(-c3ccc(C(F)(F)F)c(F)c3)c(=O)[nH]2)c1` [Example-161, N-(4-Chloro-3-(1-(3-fluoro-4-(trifluoromethyl)phenyl)-4,5-dihydro-5-oxo-1H-1,2,4-triazol-3-yl)benzyl)isobutyramide] were, in that order, 98%, 99.4% and below 50 nM.
On the same counts, the results for `CC(C)S(=O)(=O)NCc1ccc(Cl)c(-c2nn(-c3ccc(C(F)(F)F)cc3)c(=O)[nH]2)c1` [Example-162, N-(4-Chloro-3-{5-oxo-1-[4-(trifluoromethyl)phenyl]-4,5-dihydro-1H-1,2,4-triazol-3-yl}benzyl)propane-2-sulfonamide] are 99.3%, 99.3% and below 50 nM.
